Data on one molecule can be found in paper PMC8004991, “The Interaction of the Flavonoid Fisetin with Human Glutathione Transferase A1-1” (Metabolites, 2021).

In this experiment the target is T1, human glutathione transferase A1-1 (hGSTA1-1) (Homo sapiens, UniProt P08263).
T1 construct: gene GSTA1
T1 sequence (P08263 2-222): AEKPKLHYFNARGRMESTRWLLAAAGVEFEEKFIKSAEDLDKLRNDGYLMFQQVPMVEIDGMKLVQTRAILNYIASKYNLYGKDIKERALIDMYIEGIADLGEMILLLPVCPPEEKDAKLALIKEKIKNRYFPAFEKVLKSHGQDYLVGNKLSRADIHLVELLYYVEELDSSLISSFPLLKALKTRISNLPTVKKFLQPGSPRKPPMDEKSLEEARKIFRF
Nature of the experiment: CDNB/GSH conjugation assay with purified recombinant hGSTA1-1; IC50 and steady-state inhibition kinetics (Ki […] vs GSH, […] vs CDNB). Type of experiment: biochemical. The source says: Fisetin appears to be a strong inhibitor for hGSTA1-1

By IC50 is commonly meant the point on the concentration scale where inhibition reaches its midpoint. `O=c1c(O)c(-c2ccc(O)c(O)c2)oc2cc(O)ccc12` [fisetin]: the 50% inhibitory concentration (IC50) stood at 1200 ± 100 nM.
